This is an account of results in patent US12691101B2, “Compound and method for preventing or treating of respiratory diseases comprising the same as an active ingredient” (YONSEI UNIVERSITY, UNIVERSITY - INDUSTRY FOUNDATION (UIF), priority 2019, dated 2026).

The test system of assay [1] is AN01. In words: Protein expression measurement in IL-4-treated HNE cells, AN01. The conditions noted are these: long-term treatment. In kind it is cell-based, human. The procedure:
CHO-K1 and HNE cells were lysed with a cytolytic buffer (50 mM Tris-HCl, pH 7.4, 1% Nonidet P-40, 0.25% sodium deoxycholate, 150 mM NaCl, 1 mM EDTA, 1 mM Na3VO4, and protease inhibiting mixture). The total cell lysates were under centrifugation at 15,000×g for 10 minutes at 4° C. to remove cellular debris and the same amount (50 μg protein or 5 μg protein/lane) of supernatant protein was isolated on 4-12% Tris-glycine precast gel (KOMA BIOTECH, Seoul, Korea) and transferred to PVDF membrane (Millipore, Billerica, MA, USA). The membrane was blocked with 5% fat-free skim milk in TBS containing 0.1% Tween 20 (TBST) or 5% bovine serum albumin in TBS at a room temperature for 1 hour. Then, the membrane was cultured at 4° C. overnight with a primary antibody against pendrin (sc-50346; Santa Cruz Biotechnology, Santa Cruz, CA, USA), NF-κB p65 (4764S; Cell Signaling Technology, Danvers, MA, USA), p-NF-κB p65 (3033S; Cell Signaling Technology), IkBα (9242S; Cell Signaling Technology), p-IkBα (9141S; Cell Signaling Technology), β-actin (sc-47778; Santa Cruz Biotechnology), or AN01 (ab64085; Abeam). After washing with 0.05% Tween 20 (TBST) in PBS, the blot was additionally cultured with a secondary antibody (Cell Signaling Technology, Danvers, MA) at a room temperature for 60 minutes. […]

Assay [2] has as its system SCN^− transport. In words: Epithelial SCN^− transport in IL-4-treated HNE cells. To be noted: 30 μM, 30 minutes. In kind it is cell-based, human. The procedure: Nasal epithelial cells were plated on a transwell permeable supporter and cultured in ALI (air-liquid interface) for 14 days. After completely differentiated epithelial cells were cultured with IL-4 (Invitrogen, 10 ng/mL) for 48 hours, F56 (30 μM) or vehicle was added for 30 minutes. The transwell insert having cells was washed with PBS and the basal side was treated with 1 mL PBS containing 10 mM glucose and 5 μCi S^14CN (total concentration SCN^−: 86 μM). The apical side of the transwell was filled with 0.5 mL PBS containing 5 μM amiloride to block epithelial sodium. Subsequently, the apical fluid was collected every 5 minutes and placed in scintillation vials for evaluation of radioactivity.

The subject of assay [3] is Duox1 and Duox2 mRNA. In words: Real-time PCR of Duox1 and Duox2 mRNA in IL-4-treated HNE cells. In kind it is cell-based, human. The procedure:
The total messenger RNA (mRNA) was extracted using TRIzol reagent (Invitrogen, Carlsbad, CA, USA), and was reverse-transcribed using a random hexamer primer, an oligo(dT) primer and SuperScript® III reverse transcriptase (Invitrogen). Quantitative real-time PCR was performed using StepOnePlus Real-Time PCR system (Applied Biosystems, Foster City, CA, USA) and Thunderbird SYBR qPCR mix (Tokyobo, Osaka, Japan). Thermal cycling conditions included the initial stage at 95° C. for 5 minutes, and subsequent 40 cycles at 95° C. for 10 seconds, at 55° C. for 20 seconds and at 72° C. for […].
Background: Quantitative PCR measures a nucleic acid by following its amplification.

In assay [4] the test system is LPS-induced acute lung injury mice. In words: LPS-induced ALI in mouse model. In kind it is in vivo. The procedure: Mice were slightly anesthetized by isoflurane inhalation (Abbott Laboratory), and were maintained in a supine position with the head raised. LPS (Escherichia coli, 0111: B4, Sigma) (10 mg/kg) in 50 μL PBS was administered by intranasal (i.n.) inhalation. As the control group, 50 μL sterile PBS was intranasally provided. With the aid of a microsyringe from Hamilton, the administration solution was gradually released into the nostrils. In case of the pretreatment model, F56 (10 mg/kg) in 50 μL DMSO was intraperitoneally (i.p) administered before 1 hour of LPS inhalation. In case of the post-treatment model, two doses of F56 were administered at 6 hours and 12 hours after LPS inhalation. The mice of the pretreatment group were euthanized and in 48 hours after LPS inhalation, the lung was harvested. In the post-treatment model, euthanasia and sample collection occurred 24 hours after LPS administration. For SCN^− experiment, after F56 treatment, […]
All mice were euthanized with fetal excessive amount of ketamine and xylazine. BALF was obtained by tracheal cannula using 1 mL sterile saline solution. BALF was centrifuged (4° C., 3000 rpm, 10 minutes) and the supernatant was stored at −80° C. for an additional analysis. The cell pellet was recomposed in 100 μL PBS, and used for the number of cells and cytospin sample. The total number of cells of each sample was determined using a hemocytometer (Marienfield), according to the manufacturer's protocol. Each sample in a 90 μL split amount was transferred to a slide chamber, and then the slide was inserted into the cytospin with outward facing. The slide was centrifuged at 800 rpm for 5 minutes, and then removed from the cell centrifuge, and dried before staining. The cytospin was prepared with a cell centrifuge (Shandon Cytospin 4 cytocentrifuge, Thermo Scientific, Waltham, MA, USA) and stained with Diff-Quik Stain Set (Dade Behring, Newark, DE, USA) to evaluate inflammation. The protein concentration of BAL supernatant was measured using BCA analysis (Thermo Fischer Scientific). 2 microliters of each sample and 198 μL of a working reagent were pipetted in a microplate well and completely mixed in a plate shaker for […]. After culturing at 37° C. for 30 minutes, the plate was cooled and the absorbance was read at 562 nm in a spectrophotometer.
The right lung was isolated and the pulmonary vasculature structure was flushed with saline solution under low pressure and stored at −80° C. before protein extraction. The left lung was inflated via tracheostomy with low-meting agarose (4%) in PBS at 25 cm H2O pressure until the pleural margin was sharpened. Then, the lung was excised and fixed overnight in 10% formaldehyde in PBS and embedded in paraffin for 5 μm sections. The left lung section was stained with H&E and subjectively evaluated with an optical microscope. Histopathology was reviewed in a blind method by two qualified researchers. Five easily identifiable pathological processes were scored using the weighted scale presented in the official ATS workshop report. Lung sections were processed using anti-rabbit SLC26A4 (ab98091, abcam) antibody for immunohistochemistry.
In the lung lysates, the level of macrophage inflammatory protein (MIP-2), interleukin-1β (IL-1β […] and tumor necrosis factor α (TNF-α) was measured using an ELISA kit (Millipore), according to the manufacturer's instructions.
The lung tissue was harvested and dissolved in a homogenization buffer (PRO-PREP™ extraction solution, iNtRON Biotechnology). The sample was centrifuged at 4° C. for 30 minutes at 13000 g. The supernatant protein concentration was determined by BCA analysis (Thermo Fisher Scientific). The same amount of protein was separated by SDS/PAGE and transferred to a nitrocellulose membrane. […]

The mark [5] stands for this setting: post-treatment 10 mg/kg i.p. at 6 and 12 hours after LPS, 24 hours after LPS.
[6] abbreviates: pretreatment 10 mg/kg i.p. 1 hour before LPS, 48 hours after LPS, versus vehicle.

For the compound `CC(C)(C)c1ccc(C2=NC(=Cc3cccs3)C(=O)O2)cc1` [F56, 2-(4-(tert-butyl)phenyl)-4-(thiophen-2-ylmethylene)oxazol-5(4H)-one], the “IL-4-induced upregulation of AN01” value in assay [1] is on record as “not affected”. Moreover, the “SCN^− concentration on the apical surface” value in assay [2] is recorded as “inhibited”. For the same compound, in assay [3], the “mRNA expression of Duox1 or Duox2” value is reported as “did not affect”. In addition, the “level of pro-inflammatory cytokine in lung lysates (IL-1β, MIP-2, IL-6, TNF-α)” value in assay [4] (F56 pretreated versus vehicle (DMSO) after LPS) was “reduced”. For the same compound, in assay [4] (F56 treatment before LPS), the “Phospho-Iκ expression in lung lysates” value is “significantly reduced”. In assay [4] (setting [5]), the BALF protein concentration entry was “considerably reduced”, the “BALF total cell number” value is recorded as “considerably reduced” and the lung injury score result is given as “considerably reduced”. Further, in assay [4] (setting [6]), the “BAL protein concentration level” value is on record as “reduced”, the “BAL total cell number” value is “reduced” and the lung injury score result was “significantly reduced”.
